Literature values, collected in article PMC6271218, “Pharmacokinetics, Tissue Distribution and Excretion of Verticinone from F. hupehensis in Rats” (Molecules, 2014).

Design: method as in PMID 20446906
Details: same dose administered; cited from earlier work

SMILES: C[C@@H](Oc1cc(-c2cnn(C3CCNCC3)c2)cnc1N)c1c(Cl)ccc(F)c1Cl [PF-02341066]
- plasma concentrations, fold higher in male than in female rats: at least 2 fold
